Experiments:
[1] = biological target: T1, Alpha-2A adrenergic receptor (Homo sapiens, UniProt P08913); assay type: cell membranes, Sf9, Membrane; details: sf9; further: in other assays of this panel Not Active means under 50% inhibition at 10 µM
T1 sequence (P08913 whole entry): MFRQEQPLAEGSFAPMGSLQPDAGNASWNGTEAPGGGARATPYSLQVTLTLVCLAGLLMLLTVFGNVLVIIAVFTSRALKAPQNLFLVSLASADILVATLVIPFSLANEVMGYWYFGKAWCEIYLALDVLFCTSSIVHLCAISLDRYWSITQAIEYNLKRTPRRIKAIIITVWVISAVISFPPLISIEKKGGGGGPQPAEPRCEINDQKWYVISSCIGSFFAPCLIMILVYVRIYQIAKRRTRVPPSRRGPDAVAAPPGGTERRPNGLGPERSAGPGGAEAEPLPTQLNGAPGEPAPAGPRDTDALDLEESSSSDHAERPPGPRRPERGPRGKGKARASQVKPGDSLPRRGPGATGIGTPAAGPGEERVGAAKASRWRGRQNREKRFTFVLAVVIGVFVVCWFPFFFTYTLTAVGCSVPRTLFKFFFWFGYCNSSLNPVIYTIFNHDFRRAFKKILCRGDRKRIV

[2] = biological target: Aldo-keto reductase family 1 member B1 (Rattus norvegicus, UniProt P07943); assay type: tissue-based, Lens of camera-type eye;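 further: inhibition of aldose reductase enzyme activity, measured with DL-glyceraldehyde as the substrate; in other assays of this panel Not Active means under 50% inhibition at 10 µM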
[3] = DRUGMATRIX: Glutamate, Kainate radioligand binding (ligand: [3H] Kainic acid); assay type: cell membranes, Rattus norvegicus, Wistar, Brain, Membrane; details: Not Active = under 50% inhibition at 10 µM
[4] = biological target: T2, Angiotensin-converting enzyme (Oryctolagus cuniculus, UniProt P12822); assay: biochemical; assay type: tissue-based, Lung;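 further: enzymatic inhibition of angiotensin-converting enzyme measured with FAPGG as the substrate; in other assays of this panel Not Active means under 50% inhibition at 10 µM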
T2 sequence (P12822 whole entry): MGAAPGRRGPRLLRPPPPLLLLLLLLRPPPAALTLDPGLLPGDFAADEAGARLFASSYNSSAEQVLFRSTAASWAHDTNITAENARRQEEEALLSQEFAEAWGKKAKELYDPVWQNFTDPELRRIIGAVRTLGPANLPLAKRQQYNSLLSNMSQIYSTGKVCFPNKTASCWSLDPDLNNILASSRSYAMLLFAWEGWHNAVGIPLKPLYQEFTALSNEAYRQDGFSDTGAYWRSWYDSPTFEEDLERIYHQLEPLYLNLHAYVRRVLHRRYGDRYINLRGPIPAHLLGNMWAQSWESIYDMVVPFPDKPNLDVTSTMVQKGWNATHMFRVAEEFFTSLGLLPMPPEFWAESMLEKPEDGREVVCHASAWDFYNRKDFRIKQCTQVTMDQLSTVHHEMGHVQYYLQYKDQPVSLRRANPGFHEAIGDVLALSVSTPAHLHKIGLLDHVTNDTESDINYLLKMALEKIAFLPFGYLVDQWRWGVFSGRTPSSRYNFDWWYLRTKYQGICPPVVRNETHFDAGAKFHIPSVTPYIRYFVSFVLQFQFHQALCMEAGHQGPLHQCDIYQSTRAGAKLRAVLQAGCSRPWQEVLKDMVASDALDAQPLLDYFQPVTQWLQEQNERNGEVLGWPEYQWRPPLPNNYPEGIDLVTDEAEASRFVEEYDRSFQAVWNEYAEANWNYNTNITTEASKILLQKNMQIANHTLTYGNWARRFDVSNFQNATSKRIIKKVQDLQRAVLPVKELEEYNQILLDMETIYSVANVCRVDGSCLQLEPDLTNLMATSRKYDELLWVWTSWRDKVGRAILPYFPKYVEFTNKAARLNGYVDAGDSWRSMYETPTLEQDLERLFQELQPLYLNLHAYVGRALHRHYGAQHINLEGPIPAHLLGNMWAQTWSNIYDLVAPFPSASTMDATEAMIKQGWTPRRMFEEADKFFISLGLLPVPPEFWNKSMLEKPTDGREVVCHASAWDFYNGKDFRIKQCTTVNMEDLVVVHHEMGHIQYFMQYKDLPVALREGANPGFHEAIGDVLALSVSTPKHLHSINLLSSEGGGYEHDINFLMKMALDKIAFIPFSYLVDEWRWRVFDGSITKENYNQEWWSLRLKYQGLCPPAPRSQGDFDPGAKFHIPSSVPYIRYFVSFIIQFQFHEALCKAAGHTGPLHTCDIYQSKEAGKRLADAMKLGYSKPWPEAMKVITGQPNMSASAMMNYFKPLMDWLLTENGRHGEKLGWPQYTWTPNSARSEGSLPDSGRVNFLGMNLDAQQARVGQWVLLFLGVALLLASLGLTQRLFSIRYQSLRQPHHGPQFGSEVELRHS

Caspase-1 = biological target: T3, Caspase-1 (Homo sapiens, UniProt P29466); parameters: species or system Escherichia coli;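 further: Caspase-1 enzyme inhibition assay with a peptide substrate; in other assays of this panel Not Active means under 50% inhibition at 10 µM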
T3 sequence (P29466 whole entry): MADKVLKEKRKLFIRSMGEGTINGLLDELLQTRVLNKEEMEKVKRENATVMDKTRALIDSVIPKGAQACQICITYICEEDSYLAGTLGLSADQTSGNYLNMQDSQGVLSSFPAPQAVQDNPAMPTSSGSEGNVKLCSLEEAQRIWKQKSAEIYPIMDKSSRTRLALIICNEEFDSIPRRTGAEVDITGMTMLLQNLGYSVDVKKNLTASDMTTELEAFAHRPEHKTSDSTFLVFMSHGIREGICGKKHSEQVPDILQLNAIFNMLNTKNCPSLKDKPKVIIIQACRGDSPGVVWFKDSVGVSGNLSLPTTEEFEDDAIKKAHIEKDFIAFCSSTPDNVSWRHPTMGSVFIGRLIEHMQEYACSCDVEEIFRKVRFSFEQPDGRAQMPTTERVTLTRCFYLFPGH

[5] = biological target: Matrix metalloproteinase-9 (Homo sapiens, UniProt P14780); assay type: cell-based
Sequence of Matrix metalloproteinase-9 (P14780 whole entry): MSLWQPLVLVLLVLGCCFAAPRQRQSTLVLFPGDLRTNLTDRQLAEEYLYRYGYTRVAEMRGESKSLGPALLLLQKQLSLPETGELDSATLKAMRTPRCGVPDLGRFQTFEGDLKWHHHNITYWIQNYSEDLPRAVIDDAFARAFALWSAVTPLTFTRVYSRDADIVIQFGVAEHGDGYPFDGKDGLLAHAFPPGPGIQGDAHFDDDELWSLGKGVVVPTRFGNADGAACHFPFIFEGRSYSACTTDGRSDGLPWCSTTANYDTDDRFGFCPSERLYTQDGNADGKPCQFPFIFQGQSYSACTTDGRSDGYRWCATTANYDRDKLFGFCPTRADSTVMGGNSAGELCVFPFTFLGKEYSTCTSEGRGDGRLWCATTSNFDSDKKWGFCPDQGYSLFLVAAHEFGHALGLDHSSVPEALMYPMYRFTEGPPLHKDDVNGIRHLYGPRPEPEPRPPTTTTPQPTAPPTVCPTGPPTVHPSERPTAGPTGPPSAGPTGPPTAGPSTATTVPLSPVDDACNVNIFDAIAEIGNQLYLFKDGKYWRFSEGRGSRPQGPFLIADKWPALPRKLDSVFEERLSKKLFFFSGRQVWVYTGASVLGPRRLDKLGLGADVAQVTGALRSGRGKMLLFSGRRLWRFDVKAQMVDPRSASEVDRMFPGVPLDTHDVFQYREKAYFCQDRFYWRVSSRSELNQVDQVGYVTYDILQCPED

[6] = biological target: Receptor tyrosine-protein kinase erbB-2 (Homo sapiens, UniProt P04626); assay: biochemical; assay type: cell-based, Insect cells; details: insect cells
Cytochrome P450 2A6 = biological target: T4, Cytochrome P450 2A6 (Homo sapiens, UniProt P11509); details: bti-tn-5b1-4; further: in other assays of this panel Not Active means under 50% inhibition at 10 µM
T4 sequence (P11509 whole entry): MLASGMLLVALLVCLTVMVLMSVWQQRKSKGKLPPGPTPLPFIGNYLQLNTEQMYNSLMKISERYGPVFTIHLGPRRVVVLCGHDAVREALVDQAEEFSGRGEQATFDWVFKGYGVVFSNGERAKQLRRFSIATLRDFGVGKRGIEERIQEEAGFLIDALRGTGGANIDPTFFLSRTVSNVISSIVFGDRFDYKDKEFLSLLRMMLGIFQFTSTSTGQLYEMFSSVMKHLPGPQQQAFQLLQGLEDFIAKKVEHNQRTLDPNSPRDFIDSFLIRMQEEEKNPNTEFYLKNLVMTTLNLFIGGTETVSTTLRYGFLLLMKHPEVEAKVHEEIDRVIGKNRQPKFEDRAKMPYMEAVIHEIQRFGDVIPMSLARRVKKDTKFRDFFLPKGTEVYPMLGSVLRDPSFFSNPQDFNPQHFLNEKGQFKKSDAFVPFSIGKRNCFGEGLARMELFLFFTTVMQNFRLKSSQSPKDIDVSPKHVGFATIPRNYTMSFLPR

Cn1cnc([N+](=O)[O-])c1Sc1ncnc2nc[nH]c12 [AZATHIOPRINE]
Not Active: IC50 [1] | IC50 [2] | IC50 [3] | Ki [3] | IC50 [4] | IC50 (Caspase-1) | IC50 [5] | IC50 [6] | IC50 (Cytochrome P450 2A6) | Ki (Cytochrome P450 2A6)

COC1=CC(=O)C[C@@H](C)[C@]12Oc1c(Cl)c(OC)cc(OC)c1C2=O [GRISEOFULVIN]
Not Active: IC50 [1] | IC50 [2] | IC50 [3] | Ki [3] | IC50 [4] | IC50 (Caspase-1) | IC50 [5] | IC50 [6] | IC50 (Cytochrome P450 2A6) | Ki (Cytochrome P450 2A6)

O=C1CN=C(c2ccccc2)c2cc([N+](=O)[O-])ccc2N1 [NITRAZEPAM]
Not Active: IC50 [1] | IC50 [2] | IC50 [3] | Ki [3] | IC50 [4] | IC50 (Caspase-1) | IC50 [5] | IC50 [6] | IC50 (Cytochrome P450 2A6) | Ki (Cytochrome P450 2A6)

CISPLATIN
Not Active: IC50 [1] | Ki [1] | IC50 [2] | Ki [2] | IC50 [3] | Ki [3] | IC50 [4] | Ki [4] | IC50 (Caspase-1) | Ki (Caspase-1) | IC50 [5] | Ki [5] | IC50 [6] | Ki [6] | IC50 (Cytochrome P450 2A6) | Ki (Cytochrome P450 2A6)

GOLD SODIUM THIOMALATE
Not Active: IC50 [1] | Ki [1] | IC50 [2] | Ki [2] | IC50 [3] | Ki [3] | IC50 [4] | Ki [4] | IC50 (Caspase-1) | Ki (Caspase-1) | IC50 [5] | Ki [5] | IC50 [6] | Ki [6] | IC50 (Cytochrome P450 2A6) | Ki (Cytochrome P450 2A6)

CCc1cccc2c3c([nH]c12)C(CC)(CC(=O)O)OCC3 (configuration not stated) [ETODOLAC]
Not Active: IC50 [1] | IC50 [2] | IC50 [3] | Ki [3] | IC50 [4] | IC50 (Caspase-1) | IC50 [5] | IC50 [6] | IC50 (Cytochrome P450 2A6) | Ki (Cytochrome P450 2A6)

CN(C)[C@@H]1C(O)=C(C(N)=O)C(=O)[C@@]2(O)C(O)=C3C(=O)c4c(O)cccc4[C@@](C)(O)[C@H]3[C@H](O)[C@@H]12 [OXYTETRACYCLINE]
Not Active: IC50 [1] | IC50 [2] | IC50 [3] | Ki [3] | IC50 [4] | IC50 (Caspase-1) | IC50 [5] | IC50 [6] | IC50 (Cytochrome P450 2A6) | Ki (Cytochrome P450 2A6)

CN(C)CCCC1(c2ccc(F)cc2)OCc2cc(C#N)ccc21 (configuration not stated) [CITALOPRAM]
Not Active: IC50 [1] | IC50 [2] | IC50 [3] | Ki [3] | IC50 [4] | IC50 (Caspase-1) | IC50 [5] | IC50 [6] | IC50 (Cytochrome P450 2A6) | Ki (Cytochrome P450 2A6)

O=P1(NCCCl)OCCCN1CCCl (configuration not stated) [IFOSFAMIDE]
Not Active: IC50 [1] | IC50 [2] | IC50 [3] | Ki [3] | IC50 [4] | IC50 (Caspase-1) | IC50 [5] | IC50 [6]

CC(C)NC[C@H](O)COc1cccc2[nH]ccc12
Not Active: IC50 [1] | IC50 [2] | IC50 [3] | Ki [3] | IC50 [4] | IC50 (Caspase-1) | IC50 [5] | IC50 [6]

NCC(=O)O [GLYCINE]
Not Active: IC50 [1] | IC50 [2] | IC50 [3] | Ki [3] | IC50 [4] | IC50 (Caspase-1) | IC50 [5] | IC50 [6]

CNCCC=C1c2ccccc2CCc2ccccc21 [NORTRIPTYLINE]
Not Active: IC50 [2] | IC50 [3] | Ki [3] | IC50 [4] | IC50 (Caspase-1) | IC50 [5] | IC50 [6] | IC50 (Cytochrome P450 2A6) | Ki (Cytochrome P450 2A6)

O=C1OCCN1/N=C/c1ccc([N+](=O)[O-])o1 [FURAZOLIDONE]
Not Active: IC50 [1] | IC50 [2] | IC50 [3] | Ki [3] | IC50 [4] | IC50 (Caspase-1) | IC50 [5] | IC50 [6]

CC(/C=C1\SC(=S)N(CC(=O)O)C1=O)=C\c1ccccc1
Not Active: IC50 [1] | IC50 [3] | Ki [3] | IC50 [4] | IC50 (Caspase-1) | IC50 [5] | IC50 [6] | IC50 (Cytochrome P450 2A6) | Ki (Cytochrome P450 2A6)

— ChEMBL document CHEMBL1909046, “DrugMatrix in vitro pharmacology data”
